Columns and labels:
[1] = biological target: Mitogen-activated protein kinase kinase kinase 12 (Homo sapiens) (UniProt Q12852); conditions: Compound concentration 1000.0 nM
[2] = biological target: Interleukin-1 receptor-associated kinase 4 (Homo sapiens) (UniProt Q9NWZ3); conditions: Compound concentration 1000.0 nM
[3] = biological target: Dual specificity mitogen-activated protein kinase kinase 2 (Homo sapiens) (UniProt P36507); conditions: Compound concentration 1000.0 nM
[4] = biological target: Epidermal growth factor receptor (Homo sapiens) (UniProt P00533); conditions: Compound concentration 1000.0 nM
[5] = biological target: T1, 5-hydroxytryptamine receptor 2C (Homo sapiens) (UniProt P28335); conditions: Compound concentration 10.0 uM
T1 sequence (whole entry): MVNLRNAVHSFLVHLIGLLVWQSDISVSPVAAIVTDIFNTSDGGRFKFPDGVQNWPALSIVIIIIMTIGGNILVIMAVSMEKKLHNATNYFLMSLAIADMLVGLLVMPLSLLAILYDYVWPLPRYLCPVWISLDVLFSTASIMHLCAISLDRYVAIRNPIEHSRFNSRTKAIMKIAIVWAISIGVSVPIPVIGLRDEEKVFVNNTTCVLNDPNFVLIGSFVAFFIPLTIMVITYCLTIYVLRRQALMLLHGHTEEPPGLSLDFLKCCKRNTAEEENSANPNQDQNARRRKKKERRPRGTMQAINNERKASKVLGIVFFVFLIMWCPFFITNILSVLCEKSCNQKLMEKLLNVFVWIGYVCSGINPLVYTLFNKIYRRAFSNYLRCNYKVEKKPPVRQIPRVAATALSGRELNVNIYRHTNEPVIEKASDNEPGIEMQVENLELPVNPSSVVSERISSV

[6] = biological target: Wee1-like protein kinase 2 (Homo sapiens) (UniProt P0C1S8); conditions: Compound concentration 1000.0 nM
[7] = test system: Receptor-type tyrosine-protein kinase FLT3 (Homo sapiens), P36888 [UNDEFINED MUTATION]; conditions: Compound concentration 1000.0 nM
[8] = biological target: Ribosomal protein S6 kinase alpha-1 (Homo sapiens) (UniProt Q15418); conditions: Compound concentration 1000.0 nM
[9] = biological target: Tyrosine-protein kinase TXK (Homo sapiens) (UniProt P42681); conditions: Compound concentration 1000.0 nM
[10] = biological target: Muscle, skeletal receptor tyrosine-protein kinase (Homo sapiens) (UniProt O15146); conditions: Compound concentration 1000.0 nM
[11] = biological target: Cyclin-dependent kinase-like 2 (Homo sapiens) (UniProt Q92772); conditions: Compound concentration 1000.0 nM
[12] = test system: Epidermal growth factor receptor (Homo sapiens), P00533 [L858R,T790M]; conditions: Compound concentration 1000.0 nM
[13] = biological target: Serine/threonine-protein kinase PLK4 (Homo sapiens) (UniProt O00444); conditions: Compound concentration 1000.0 nM
[14] = biological target: Serine/threonine-protein kinase LATS1 (Homo sapiens) (UniProt O95835); conditions: Compound concentration 1000.0 nM
[15] = test system: Epidermal growth factor receptor (Homo sapiens), P00533 [L858R]; conditions: Compound concentration 1000.0 nM
[16] = biological target: Serine/threonine-protein kinase WNK2 (Homo sapiens) (UniProt Q9Y3S1); conditions: Compound concentration 1000.0 nM
[17] = biological target: NT-3 growth factor receptor (Homo sapiens) (UniProt Q16288); conditions: Compound concentration 1000.0 nM
[18] = biological target: Dual specificity protein kinase CLK1 (Homo sapiens) (UniProt P49759); conditions: Compound concentration 1000.0 nM
[19] = biological target: MAP kinase-interacting serine/threonine-protein kinase 1 (Homo sapiens) (UniProt Q9BUB5); conditions: Compound concentration 1000.0 nM
[20] = biological target: Transient receptor potential cation channel subfamily M member 6 (Homo sapiens) (UniProt Q9BX84); conditions: Compound concentration 1000.0 nM
[21] = biological target: Casein kinase I isoform gamma-3 (Homo sapiens) (UniProt Q9Y6M4); conditions: Compound concentration 1000.0 nM
[22] = biological target: Calcium-dependent protein kinase 1 (Plasmodium falciparum) (UniProt P62344); conditions: Compound concentration 1000.0 nM
[23] = biological target: LIM domain kinase 2 (Homo sapiens) (UniProt P53671); conditions: Compound concentration 1000.0 nM
[24] = biological target: Serine/threonine-protein kinase 35 (Homo sapiens) (UniProt Q8TDR2); conditions: Compound concentration 1000.0 nM
[25] = biological target: Death-associated protein kinase 1 (Homo sapiens) (UniProt P53355); conditions: Compound concentration 1000.0 nM
[26] = biological target: 5-hydroxytryptamine receptor 1D (Homo sapiens) (UniProt P28221); conditions: Compound concentration 10.0 uM
[27] = biological target: Dual specificity mitogen-activated protein kinase kinase 4 (Homo sapiens) (UniProt P45985); conditions: Compound concentration 1000.0 nM
[28] = biological target: Leucine-rich repeat serine/threonine-protein kinase 2 (Homo sapiens) (UniProt Q5S007); conditions: Compound concentration 1000.0 nM
[29] = biological target: Aurora kinase C (Homo sapiens) (UniProt Q9UQB9); conditions: Compound concentration 1000.0 nM
[30] = biological target: Ribosomal protein S6 kinase alpha-5 (Homo sapiens) (UniProt O75582); conditions: Compound concentration 1000.0 nM
[31] = biological target: Mitogen-activated protein kinase 15 (Homo sapiens) (UniProt Q8TD08); conditions: Compound concentration 1000.0 nM
[32] = test system: Mast/stem cell growth factor receptor Kit (Homo sapiens), P10721 [V559D,T670I]; conditions: Compound concentration 1000.0 nM
[33] = test system: Tyrosine-protein kinase ABL1 (Homo sapiens), P00519 [M351T]; conditions: Compound concentration 1000.0 nM
[34] = biological target: Serine/threonine-protein kinase 24 (Homo sapiens) (UniProt Q9Y6E0); conditions: Compound concentration 1000.0 nM
[35] = biological target: Phosphatidylinositol 4-phosphate 5-kinase type-1 gamma (Homo sapiens) (UniProt O60331); conditions: Compound concentration 1000.0 nM
[36] = biological target: Tyrosine-protein kinase Lck (Homo sapiens) (UniProt P06239); conditions: Compound concentration 1000.0 nM
[37] = biological target: Ephrin type-A receptor 8 (Homo sapiens) (UniProt P29322); conditions: Compound concentration 1000.0 nM
[38] = biological target: Ephrin type-A receptor 2 (Homo sapiens) (UniProt P29317); conditions: Compound concentration 1000.0 nM
[39] = biological target: Tyrosine-protein kinase Yes (Homo sapiens) (UniProt P07947); conditions: Compound concentration 1000.0 nM
Chain of Tyrosine-protein kinase Yes (Homo sapiens) (P07947 2-543 limits assumed): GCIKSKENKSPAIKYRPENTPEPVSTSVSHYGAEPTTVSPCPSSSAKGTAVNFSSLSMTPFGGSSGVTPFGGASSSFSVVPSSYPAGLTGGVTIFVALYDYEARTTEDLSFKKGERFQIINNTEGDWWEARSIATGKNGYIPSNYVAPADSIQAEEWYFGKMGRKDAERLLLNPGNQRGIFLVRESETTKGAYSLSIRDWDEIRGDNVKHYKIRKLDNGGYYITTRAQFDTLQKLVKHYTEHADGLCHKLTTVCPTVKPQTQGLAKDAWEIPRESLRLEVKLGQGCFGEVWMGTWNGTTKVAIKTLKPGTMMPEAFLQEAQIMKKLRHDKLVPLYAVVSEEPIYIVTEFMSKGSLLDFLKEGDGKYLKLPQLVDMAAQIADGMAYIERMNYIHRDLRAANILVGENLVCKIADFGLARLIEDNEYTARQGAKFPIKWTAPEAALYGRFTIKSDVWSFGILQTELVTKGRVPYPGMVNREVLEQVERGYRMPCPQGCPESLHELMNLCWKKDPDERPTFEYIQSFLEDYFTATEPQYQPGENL

Chain of Tyrosine-protein kinase TXK (Homo sapiens) (P42681 whole entry): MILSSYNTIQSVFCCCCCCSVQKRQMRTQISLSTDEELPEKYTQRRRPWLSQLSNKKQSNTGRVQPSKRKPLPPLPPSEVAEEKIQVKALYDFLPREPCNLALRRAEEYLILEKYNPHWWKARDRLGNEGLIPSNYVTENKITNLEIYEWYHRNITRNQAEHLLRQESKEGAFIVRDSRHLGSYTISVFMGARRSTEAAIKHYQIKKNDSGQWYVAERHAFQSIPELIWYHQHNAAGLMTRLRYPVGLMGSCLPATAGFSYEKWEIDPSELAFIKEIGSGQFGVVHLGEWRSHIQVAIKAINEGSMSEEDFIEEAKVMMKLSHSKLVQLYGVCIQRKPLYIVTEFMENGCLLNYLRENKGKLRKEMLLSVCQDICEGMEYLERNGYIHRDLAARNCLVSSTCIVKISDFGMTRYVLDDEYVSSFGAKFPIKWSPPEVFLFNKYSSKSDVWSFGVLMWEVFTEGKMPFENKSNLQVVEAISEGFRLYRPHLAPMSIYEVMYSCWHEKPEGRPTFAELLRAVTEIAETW
Chain of Mitogen-activated protein kinase kinase kinase 12 (Homo sapiens) (Q12852 whole entry): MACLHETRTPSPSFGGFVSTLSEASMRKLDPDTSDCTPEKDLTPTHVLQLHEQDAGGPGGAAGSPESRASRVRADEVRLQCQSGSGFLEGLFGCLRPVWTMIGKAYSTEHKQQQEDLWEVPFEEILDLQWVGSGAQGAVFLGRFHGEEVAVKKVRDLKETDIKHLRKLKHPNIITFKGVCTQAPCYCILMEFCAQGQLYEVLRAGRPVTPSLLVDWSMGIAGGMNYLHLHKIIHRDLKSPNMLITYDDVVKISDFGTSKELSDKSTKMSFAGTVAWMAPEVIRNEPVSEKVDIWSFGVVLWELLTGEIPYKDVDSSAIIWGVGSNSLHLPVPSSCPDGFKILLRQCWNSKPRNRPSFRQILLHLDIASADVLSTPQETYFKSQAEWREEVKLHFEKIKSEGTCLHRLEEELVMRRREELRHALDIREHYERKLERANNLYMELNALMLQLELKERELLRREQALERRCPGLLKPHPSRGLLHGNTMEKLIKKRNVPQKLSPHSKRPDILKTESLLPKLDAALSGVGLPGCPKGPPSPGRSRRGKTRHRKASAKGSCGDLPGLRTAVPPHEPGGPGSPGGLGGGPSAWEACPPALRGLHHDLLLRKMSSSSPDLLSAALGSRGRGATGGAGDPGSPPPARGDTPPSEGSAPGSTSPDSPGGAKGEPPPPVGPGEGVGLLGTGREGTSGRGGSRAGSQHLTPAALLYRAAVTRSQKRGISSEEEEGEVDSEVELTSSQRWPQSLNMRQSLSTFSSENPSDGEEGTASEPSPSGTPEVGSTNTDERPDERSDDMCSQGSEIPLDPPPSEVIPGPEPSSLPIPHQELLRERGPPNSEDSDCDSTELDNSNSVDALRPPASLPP
Chain of Tyrosine-protein kinase Lck (Homo sapiens) (P06239 2-509 limits assumed): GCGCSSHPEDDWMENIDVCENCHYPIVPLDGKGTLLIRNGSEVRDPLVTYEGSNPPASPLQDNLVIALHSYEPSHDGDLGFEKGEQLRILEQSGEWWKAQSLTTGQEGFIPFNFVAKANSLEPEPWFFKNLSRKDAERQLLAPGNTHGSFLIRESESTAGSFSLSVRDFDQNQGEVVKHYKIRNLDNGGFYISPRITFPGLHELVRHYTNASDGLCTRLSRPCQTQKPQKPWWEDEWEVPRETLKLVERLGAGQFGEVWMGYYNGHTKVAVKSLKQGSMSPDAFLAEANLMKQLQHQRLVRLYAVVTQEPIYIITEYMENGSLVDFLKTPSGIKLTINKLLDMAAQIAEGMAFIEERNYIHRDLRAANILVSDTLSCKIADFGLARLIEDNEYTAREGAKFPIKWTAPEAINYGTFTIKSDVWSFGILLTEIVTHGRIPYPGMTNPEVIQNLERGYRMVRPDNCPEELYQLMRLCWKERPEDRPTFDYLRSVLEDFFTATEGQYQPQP
Chain of MAP kinase-interacting serine/threonine-protein kinase 1 (Homo sapiens) (Q9BUB5 whole entry, looked up): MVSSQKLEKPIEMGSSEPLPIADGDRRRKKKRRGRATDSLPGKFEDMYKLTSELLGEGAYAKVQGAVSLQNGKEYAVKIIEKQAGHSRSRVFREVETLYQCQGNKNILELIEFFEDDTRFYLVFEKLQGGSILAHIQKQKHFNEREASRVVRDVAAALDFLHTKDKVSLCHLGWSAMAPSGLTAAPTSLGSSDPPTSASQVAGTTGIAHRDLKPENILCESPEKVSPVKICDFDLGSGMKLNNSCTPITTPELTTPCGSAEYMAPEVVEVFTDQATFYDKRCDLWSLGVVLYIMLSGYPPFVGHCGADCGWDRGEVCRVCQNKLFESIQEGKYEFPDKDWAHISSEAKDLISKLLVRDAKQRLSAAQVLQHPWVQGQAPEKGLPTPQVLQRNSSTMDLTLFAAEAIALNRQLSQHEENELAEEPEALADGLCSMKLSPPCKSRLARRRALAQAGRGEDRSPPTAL
Chain of Serine/threonine-protein kinase PLK4 (Homo sapiens) (O00444 whole entry): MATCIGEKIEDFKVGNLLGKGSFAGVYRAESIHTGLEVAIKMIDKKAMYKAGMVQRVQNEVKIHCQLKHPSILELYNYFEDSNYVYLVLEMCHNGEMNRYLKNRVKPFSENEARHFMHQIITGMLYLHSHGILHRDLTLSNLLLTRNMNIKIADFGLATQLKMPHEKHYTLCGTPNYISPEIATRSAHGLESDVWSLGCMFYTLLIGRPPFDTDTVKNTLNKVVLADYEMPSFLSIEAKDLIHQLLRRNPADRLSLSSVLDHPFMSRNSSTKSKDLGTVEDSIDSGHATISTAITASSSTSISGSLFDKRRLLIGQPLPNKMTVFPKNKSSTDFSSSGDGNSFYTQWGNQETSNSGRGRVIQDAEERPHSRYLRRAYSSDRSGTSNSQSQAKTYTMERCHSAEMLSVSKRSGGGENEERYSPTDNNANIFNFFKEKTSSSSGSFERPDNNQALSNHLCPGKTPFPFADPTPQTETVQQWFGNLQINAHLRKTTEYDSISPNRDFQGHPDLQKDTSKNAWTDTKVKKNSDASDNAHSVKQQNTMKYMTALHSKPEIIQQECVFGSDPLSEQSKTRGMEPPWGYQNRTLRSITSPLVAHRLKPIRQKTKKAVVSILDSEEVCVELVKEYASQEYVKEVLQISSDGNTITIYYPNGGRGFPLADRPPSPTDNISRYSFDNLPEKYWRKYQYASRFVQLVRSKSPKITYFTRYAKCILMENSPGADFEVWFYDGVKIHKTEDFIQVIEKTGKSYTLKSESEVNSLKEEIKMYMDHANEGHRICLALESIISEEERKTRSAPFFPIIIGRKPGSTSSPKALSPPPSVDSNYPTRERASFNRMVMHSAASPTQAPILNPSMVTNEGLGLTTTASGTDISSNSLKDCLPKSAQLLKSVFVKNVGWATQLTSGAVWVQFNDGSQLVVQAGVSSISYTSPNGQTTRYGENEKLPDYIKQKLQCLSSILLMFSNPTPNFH
Chain of Mitogen-activated protein kinase 15 (Homo sapiens) (Q8TD08 whole entry): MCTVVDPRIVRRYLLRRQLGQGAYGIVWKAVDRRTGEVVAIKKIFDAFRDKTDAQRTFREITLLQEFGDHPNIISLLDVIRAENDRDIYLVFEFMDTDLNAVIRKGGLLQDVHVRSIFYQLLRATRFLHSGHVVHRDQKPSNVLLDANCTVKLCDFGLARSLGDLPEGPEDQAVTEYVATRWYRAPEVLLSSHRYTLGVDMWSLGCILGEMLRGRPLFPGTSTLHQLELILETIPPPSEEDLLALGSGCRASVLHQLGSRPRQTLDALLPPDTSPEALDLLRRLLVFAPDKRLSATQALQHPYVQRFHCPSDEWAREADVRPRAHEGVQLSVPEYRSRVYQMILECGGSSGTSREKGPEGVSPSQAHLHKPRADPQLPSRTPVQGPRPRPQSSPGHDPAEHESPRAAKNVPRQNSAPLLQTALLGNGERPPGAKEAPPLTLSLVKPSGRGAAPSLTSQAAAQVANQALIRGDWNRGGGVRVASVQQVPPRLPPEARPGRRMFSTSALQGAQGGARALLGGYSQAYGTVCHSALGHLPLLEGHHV
Chain of Dual specificity mitogen-activated protein kinase kinase 2 (Homo sapiens) (P36507 whole entry): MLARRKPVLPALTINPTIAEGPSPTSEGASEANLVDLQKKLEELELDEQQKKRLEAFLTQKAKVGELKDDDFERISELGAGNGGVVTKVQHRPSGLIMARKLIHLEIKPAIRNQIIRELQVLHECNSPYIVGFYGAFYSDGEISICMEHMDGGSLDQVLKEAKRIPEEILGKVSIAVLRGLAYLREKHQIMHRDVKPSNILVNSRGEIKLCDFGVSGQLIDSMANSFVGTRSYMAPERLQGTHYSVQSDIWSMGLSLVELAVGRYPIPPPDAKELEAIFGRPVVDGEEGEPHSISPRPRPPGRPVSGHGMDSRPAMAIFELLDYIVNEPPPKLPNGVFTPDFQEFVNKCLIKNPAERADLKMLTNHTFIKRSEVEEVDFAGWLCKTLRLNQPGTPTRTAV

FC(F)(F)c1ccc2c(c1)nc(-c1cccnc1)n2C1CC1 [MSD-CYP11B2-Negative-control] showed a residual activity [1] of 100%, a residual activity [2] of 100% and a residual activity [3] of 100%. For the same compound, the residual activity [4] was 86%, the inhibition [5] was 30.8% and the residual activity [6] was 100%. It also gave a residual activity [7] of 92%, a residual activity [8] of 100% and a residual activity [9] of 100%. It also gave a residual activity [10] of 100%, a residual activity [11] of 100% and a residual activity [12] of 100%. It also gave a residual activity [13] of 78%, a residual activity [14] of 86% and a residual activity [15] of 91%. For the same compound, the residual activity [16] was 100%, the residual activity [17] was 100% and the residual activity [18] was 100%. The residual activity [19] was 100%, the residual activity [20] was 100% and the residual activity [21] was 100%. For the same compound, the residual activity [22] was 100%, the residual activity [23] was 100% and the residual activity [24] was 100%. For the same compound, the residual activity [25] was 100%, the inhibition [26] was 6.79% and the residual activity [27] was 100%. For the same compound, the residual activity [28] was 100%, the residual activity [29] was 100% and the residual activity [30] was 100%. It also gave a residual activity [31] of 100%, a residual activity [32] of 100% and a residual activity [33] of 100%. For the same compound, the residual activity [34] was 100%, the residual activity [35] was 85% and the residual activity [36] was 100%. The residual activity [37] was 100%, the residual activity [38] was 100% and the residual activity [39] was 100%.

In the case of CC(C)(O)c1cncc(-c2nc3ccc(F)cc3n2C2CC2)c1 [MSD-CYP11B2], the residual activity [1] is reported as 100%, the residual activity [2] is reported as 100% and the residual activity [3] is reported as 100%. For the same compound, the residual activity [4] was 100%, the inhibition [5] was 100% and the residual activity [6] was 100%. It also gave a residual activity [7] of 83%, a residual activity [8] of 100% and a residual activity [9] of 92%. For the same compound, the residual activity [10] was 100%, the residual activity [11] was 97% and the residual activity [12] was 92%. For the same compound, the residual activity [13] was 79%, the residual activity [14] was 82% and the residual activity [15] was 100%. It also gave a residual activity [16] of 100%, a residual activity [17] of 100% and a residual activity [18] of 94%. The residual activity [19] was 100%, the residual activity [20] was 100% and the residual activity [21] was 100%. The residual activity [22] was 100%, the residual activity [23] was 100% and the residual activity [24] was 100%. The residual activity [25] was 100%, the inhibition [26] was 0.75% and the residual activity [27] was 100%. It also gave a residual activity [28] of 100%, a residual activity [29] of 100% and a residual activity [30] of 100%. For the same compound, the residual activity [31] was 90%, the residual activity [32] was 100% and the residual activity [33] was 100%. The residual activity [34] was 100%, the residual activity [35] was 100% and the residual activity [36] was 100%. It also gave a residual activity [37] of 100%, a residual activity [38] of 100% and a residual activity [39] of 100%.

— ChEMBL document CHEMBL4507294, “Data for DCP probe MSD-CYP11B2” (2021)
